# Values quoted from earlier work as cited in patent US20220287302A1, “COMPOSITIONS FOR PATHOGEN IN[…] PATHOGEN REDUCTION MANAGEMENT” (priority 2020, published 2022).
structure (smiles),measurement,setting,value
"O=c1c(O)c(O)c1=O [Squaric acid, 3,4-dihydroxy-3-cyclobutene-1,2 dione]",pKa for the first proton,first proton,1.5
same,pKa for the second proton,second proton,3.4
